pEC50: −log10 of the molar value. Where two headings read alike, the source gives them in different places.
Assays:
Design in all cases: species or system Hepatitis C virus
HCV replicon 1A = assay: Cell-based HCV replicon assay (Replicon Assay A), replicon 1A; conditions: replicon RNA by real time PCR, day 3
Description: (§1) To measure cell-based anti-HCV activity of compounds of the present invention, two complimentary assays were employed using various replicons. In the first assay (“Replicon Assay A”), replicon cells were seeded at 2000 cells/well in 384-well 384-well flat bottom tissue culture treated clear bottom plate (Corning 3707) in the presence of the test compound. Various concentrations of test compound, typically in 10 serial dilutions, were added to the assay mixture, with the starting concentration ranging from 333.3 nM to 1.667 nM. The final concentration of DMSO was 0.5%. Fetal bovine serum was 5%, in the assay media. Cells were harvested on day 3 by removing media and washing the cells with a suitable wash buffer. The cells were lysed with the addition of 1× Qiagen lysis buffer (Cat #1062731). The replicon RNA level was measured using real time PCR (TaqMan® EZ RT-PCR, Applied Biosystems 403028) with the following primers and probes: […]
(§2) Cyclophilin RNA was used as endogenous control and was amplified in the same reaction as NS5B (multiplex PCR). The real-time RT-PCR reactions were run on ABI PRISM 7900HT Sequence Detection System using the following program: 50° C. for 2 minutes, 60° C. for 30 minutes, 95° C. for 5 minutes, 40 cycles of 94° C. for 20 sec, 55° C. for 1 minutes.
(§3) The amount of HCV replicon RNA per cell was quantified using a linear regression curve for a known nanogram (ng) amount of HCV replicon total RNA. This was established by plotting the Cycle Threshold values (Ct) from the Neo probe and primer set versus the log (ng) for each HCV replicon total RNA standard. The amount of HCV RNA for each replicon sample was calculated by taking the sample's Ct value, minus the line intercept, divided by the slope of the line. Similarly, the amount of Cyclophilin mRNA per cell was also quantified using a linear regression curve for a known nanogram (ng) amount of HCV replicon total RNA. Again, this was established by plotting the Cycle Threshold values (Ct) from the Cyclophilin probe and primer set versus the log (ng) for each HCV replicon total RNA standard.
(§4) The real-time RT-PCR reactions were run on ABI PRISM 7900HT or Viia7 Sequence Detection System using the following program: 48° C. for 30 minutes, 95° C. for 10 minutes, 40 cycles of 95° C. for 15 sec, 60° C. for 1 minutes. The 50% effective concentration (EC50) was the drug concentration necessary to achieve an increase in the cycle threshold (CT) of 1 over the projected baseline CT.
(§5) Data was obtained for various compounds of the present invention using the methods described in the Example above, and is presented in the table immediately below. EC50 data for replicons 1A, 1AY93H and 2B were obtained using Replicon Assay A and EC50 data for replicon 1B was obtained using Replicon Assay B.

HCV replicon 1B = assay: Cell-based HCV replicon assay (Replicon Assay B), replicon 1B; conditions: replicon RNA by real-time PCR, 3 days
Description: In an alternate assay (“Replicon Assay B”), 1000 cells were seeded per well in a 384-well collagen coated black plate from Greiner bio-one (Cat #781946) in 5% FBS. Inhibitors of this invention were added at 24 h post-seeding, and the plates were incubated for 3 days. Cells were subsequently lysed with Qiagen lysis buffer (Cat #1062731) to extract the RNA. HCV replicon RNA level was measured by real-time PCR using the RNA-to-CT kit from Applied Biosystem (Cat #4392656) and genotype-specific primers and probes. The amplicon was located within NS5B. […] (SEQ. ID NO. 2); the probe sequence was FAM-labeled […] (SEQ. ID NO. 3).
The real-time RT-PCR reactions were run on ABI PRISM 7900HT or Viia7 Sequence Detection System using the following program: 48° C. for 30 minutes, 95° C. for 10 minutes, 40 cycles of 95° C. for 15 sec, 60° C. for 1 minutes.
EC50 data for replicons 1A, 1AY93H and 2B were obtained using Replicon Assay A and EC50 data for replicon 1B was obtained using Replicon Assay B.

HCV replicon 2B = assay: Cell-based HCV replicon assay (Replicon Assay A), replicon 2B; conditions: replicon RNA by real time PCR, day 3
Description: as §1, §2, §3, §4, §5

HCV replicon 1A Y93H = assay: Cell-based HCV replicon assay (Replicon Assay A), replicon 1AY93H; conditions: replicon RNA by real time PCR, day 3
Description: as §1, §2, §3, §4, §5

[1] = read-out: EC50 replicon 2B, Replicon Assay A
[2] = read-out: EC50 replicon 1A Y93H, Replicon Assay A

| Structure (SMILES) | pEC50 (HCV replicon 1A) | pEC50 (HCV replicon 1B; Hepatitis C virus, 72 h) | pEC50 (HCV replicon 2B; [1]) | pEC50 (HCV replicon 1A Y93H; [2]) | pEC50 (HCV replicon 1B) | pEC50 (HCV replicon 1A; Hepatitis C virus, 72 h) | pEC50 (HCV replicon 2B; Hepatitis C virus, 72 h, read-out: EC50 replicon 2B, Replicon Assay A) | pEC50 (HCV replicon 1A Y93H; Hepatitis C virus, 72 h, read-out: EC50 replicon 1A Y93H, Replicon Assay A) |
| --- | --- | --- | --- | --- | --- | --- | --- | --- |
| COC(=O)N[C@H](C(=O)N1CCC[C@H]1c1ncc(-c2cc(F)c3c(c2)OC(c2ccc4c(c2)OCCC4C)n2c-3cc3cc(-c4cnc([C@@H]5CCCN5C(=O)[C@@H](NC(=O)OC)C(C)C)[nH]4)ccc32)[nH]1)C(C)C (single isomer, unassigned) [Compound 8] | 11.68 | 11.96 | 10.39 | 10.42 |  |  |  |  |
| COC(=O)N[C@H](C(=O)N1CCC[C@H]1c1ncc(-c2cc(F)c3c(c2)OC(c2ccc4c(c2)OCCC4C)n2c-3cc3cc(-c4cnc([C@@H]5CCCN5C(=O)[C@@H](NC(=O)OC)C(C)C)[nH]4)ccc32)[nH]1)C(C)C (single isomer, unassigned) [Compound 10] | 11.62 |  | 10.39 | 10.41 | 11.92 |  |  |  |
| COC(=O)N[C@H](C(=O)N1CCC[C@H]1c1ncc(-c2cc(F)c3c(c2)OC(c2ccc4c(c2)OC(C)CC4)n2c-3cc3cc(-c4cnc([C@@H]5CCCN5C(=O)[C@@H](NC(=O)OC)C(C)C)[nH]4)ccc32)[nH]1)C(C)C (single isomer, unassigned) [Compound 13] | 11.64 | 11.49 | 9.84 | 9.97 |  |  |  |  |
| COC(=O)N[C@H](C(=O)N1CCC[C@H]1c1ncc(-c2cc(F)c3c(c2)OC(c2ccc4c(c2)OC(C)CC4)n2c-3cc3cc(-c4cnc([C@@H]5CCCN5C(=O)[C@@H](NC(=O)OC)C(C)C)[nH]4)ccc32)[nH]1)C(C)C (single isomer, unassigned) [Compound 14] | 11.74 |  | 9.79 | 9.92 | 11.59 |  |  |  |
| COC(=O)N[C@H](C(=O)N1CCC[C@H]1c1ncc(-c2cc(F)c3c(c2)OC(c2ccc4c(c2)OCCC4(F)F)n2c-3cc3cc(-c4cnc([C@@H]5CCCN5C(=O)[C@@H](NC(=O)OC)C(C)C)[nH]4)ccc32)[nH]1)C(C)C (single isomer, unassigned) [Compound 20] | 11.89 | 11.85 | 10.40 | 10.17 |  |  |  |  |
| COC(=O)N[C@H](C(=O)N1CCC[C@H]1c1ncc(-c2cc(F)c3c(c2)OC(c2ccc4c(c2)OC(C)(C)C4)n2c-3cc3cc(-c4cnc([C@@H]5CCCN5C(=O)[C@@H](NC(=O)OC)C(C)C)[nH]4)ccc32)[nH]1)C(C)C (single isomer, unassigned) [Compound 28] | 11.77 | 11.68 | 9.98 | 10.49 |  |  |  |  |
| COC(=O)N[C@H](C(=O)N1CCC[C@H]1c1ncc(-c2cc(F)c3c(c2)OC(c2ccc4c(c2)OCCC4)n2c-3cc3cc(-c4cnc([C@@H]5CCCN5C(=O)[C@@H](NC(=O)OC)C5CCOCC5)[nH]4)ccc32)[nH]1)C(C)C (single isomer, unassigned) [Compound 31] |  | 11.66 | 10.01 | 9.49 |  | 11.82 |  |  |
| COC(=O)N[C@H](C(=O)N1CCC[C@H]1c1ncc(-c2cc(F)c3c(c2)OC(c2ccc4c(c2)OCCC4)n2c-3cc3cc(-c4cnc([C@@H]5CCCN5C(=O)[C@@H](NC(=O)OC)C5CCOCC5)[nH]4)ccc32)[nH]1)C(C)C (single isomer, unassigned) [Compound 32] | 11.59 |  | 11.52 | 11.00 | 11.59 |  |  |  |
| COC(=O)N[C@H](C(=O)N1CCC[C@H]1c1ncc(-c2ccc3c(c2)cc2n3C(c3ccc4c(c3)OCCC4)Oc3cc(-c4cnc([C@@H]5CCCN5C(=O)[C@@H](NC(=O)OC)C5CCOCC5)[nH]4)cc(F)c3-2)[nH]1)C(C)C (single isomer, unassigned) [Compound 33] |  | 11.68 | 9.94 | 9.22 |  | 11.74 |  |  |
| COC(=O)N[C@H](C(=O)N1CCC[C@H]1c1ncc(-c2ccc3c(c2)cc2n3C(c3ccc4c(c3)OCCC4)Oc3cc(-c4cnc([C@@H]5CCCN5C(=O)[C@@H](NC(=O)OC)C5CCOCC5)[nH]4)cc(F)c3-2)[nH]1)C(C)C (single isomer, unassigned) [Compound 34] | 11.68 |  | 11.30 | 11.10 | 11.52 |  |  |  |
| COC(=O)N[C@H](C(=O)N1CCC[C@H]1c1ncc(-c2cc(F)c3c(c2)OC(c2ccc4c(c2)CCCO4)n2c-3cc3cc(-c4cnc([C@@H]5CCCN5C(=O)[C@@H](NC(=O)OC)C5CCOCC5)[nH]4)ccc32)[nH]1)C(C)C (single isomer, unassigned) [Compound 35] |  | 11.92 |  | 10.21 |  | 11.47 | 9.59 |  |
| CCO[C@H](C)[C@H](NC(=O)OC)C(=O)N1CCC[C@H]1c1ncc(-c2cc(F)c3c(c2)OC(c2ccc4c(c2)OCCC4)n2c-3cc3cc(-c4cnc([C@@H]5CCCN5C(=O)[C@@H](NC(=O)OC)C(C)C)[nH]4)ccc32)[nH]1 (single isomer, unassigned) [Compound 39] |  | 11.85 | 9.04 | 8.47 |  | 11.77 |  |  |
| CCO[C@H](C)[C@H](NC(=O)OC)C(=O)N1CCC[C@H]1c1ncc(-c2cc(F)c3c(c2)OC(c2ccc4c(c2)OCCC4)n2c-3cc3cc(-c4cnc([C@@H]5CCCN5C(=O)[C@@H](NC(=O)OC)C(C)C)[nH]4)ccc32)[nH]1 (single isomer, unassigned) [Compound 40] | 11.68 |  | 10.07 | 9.97 | 11.66 |  |  |  |
| COC(=O)NC(C(=O)N1CCC[C@H]1c1ncc(-c2ccc3c(c2)cc2n3C(c3ccc4c(c3)OCCC4)Oc3cc(-c4cnc([C@@H]5CCCN5C(=O)[C@@H](NC(=O)OC)C(C)C)[nH]4)cc(F)c3-2)[nH]1)C(C)(C)F (single isomer, unassigned) [Compound 43] |  | 11.64 | 10.09 |  |  | 11.66 |  | 10.12 |
| COC(=O)N[C@H](C(=O)N1CCC[C@H]1c1ncc(-c2cc(F)c3c(c2)OC(c2ccc4c(c2)OCC4)n2c-3cc3cc(-c4cnc([C@@H]5C[C@H]6C[C@H]6N5C(=O)[C@@H](NC(=O)OC)C(C)C)[nH]4)ccc32)[nH]1)C(C)C (single isomer, unassigned) [Compound 48] |  | 11.82 | 9.42 | 10.48 |  | 11.72 |  |  |
| COC(=O)NC(C(=O)N1CCC[C@H]1c1ncc(-c2ccc3c(c2)cc2n3C(c3ccc4c(c3)CCCO4)Oc3cc(-c4cnc([C@@H]5CCCN5C(=O)[C@@H](NC(=O)OC)C(C)C)[nH]4)cc(C)c3-2)[nH]1)C1C[C@@H](C)O[C@@H](C)C1 (single isomer, unassigned) [Compound 84] | 11.70 |  | 9.71 | 9.17 |  |  |  |  |
| COC(=O)NC(C(=O)N1CCC[C@H]1c1ncc(-c2ccc3c(c2)cc2n3C(c3ccc4c(c3)OCCC4)Oc3cc(-c4cnc([C@@H]5CCCN5C(=O)[C@@H](NC(=O)OC)C(C)C)[nH]4)cc(C)c3-2)[nH]1)C1C[C@@H](C)O[C@@H](C)C1 (single isomer, unassigned) [Compound 85] |  |  | 10.15 | 9.24 |  | 11.57 |  |  |
| COC(=O)N[C@H](C(=O)N1CCC[C@H]1c1ncc(-c2cc(F)c3c(c2)OC(c2ccc4c(c2)OCCC4)n2c-3c(F)c3cc(-c4cnc([C@@H]5CCCN5C(=O)[C@@H](NC(=O)OC)C5CCOCC5)[nH]4)ccc32)[nH]1)C(C)C (single isomer, unassigned) [Compound 91] |  |  | 9.91 | 9.05 |  | 11.96 |  |  |
